# Source: US10258642B2, “Dextran sulfate for use in mobilization of cells” (TX MEDIC AB, priority 2013, dated 2019)
# Several values for one entry are separate records, joined by “and”; a condition that tells them apart may be missing. Identical values can stand only once. Marks after values point to notes of the source that are not given here.
# Experiments:
# peripheral blood cells [1] = assay: s.c. dose finding study, hematological analysis of peripheral blood; details: LMW-DS (pKC) 500 mg/kg s.c., 3 hours, mean ± SEM
# SDF-1 = details: single injection, monkeys (Sweeney 2002); cited from earlier work
# [2] = tested on: hematopoietic colony-forming cells (CFC); assay: time-effect relationship, colony-forming cell assay; assay type: in vivo; details: mice
# Text: Peripheral blood was sampled by terminal heart puncture under isoflurane-anesthesia using EDTA-flushed (0.2 M EDTA prepared from a stock solution of 0.5 M EDTA (prepared by Rudbeck laboratory) diluted 1:2.5 in 0.9% NaCl) syringes.
# peripheral blood cells [3] = assay: effect of administration route, hematological analysis; assay type: in vivo, mice; details: 30 minutes after administration
# Experimental: (§1) Peripheral blood was sampled by terminal heart puncture under isoflurane-anesthesia using EDTA-flushed syringes and transferred to polypropylene tubes containing 1.6 mg EDTA (Sarstedt, Landskrona, Sweden).
# Mobilization was performed on DBA/2N mice (9-10 months, Charles River) using 100 mg/kg dextran sulfate (Meito, i.v. and s.c.).
# The effect on peripheral blood cells after administration of 100 mg/kg dextran sulfate i.v. and s.c. was compared (n=5). Cells were harvested 30 minutes after administration for both administration routes.
# HGF [4] = assay: time-effect relationship, HGF-ELISA; assay type: in vivo, mice; details: for HGF highest level: 15 minutes after administration, mice; for HGF: i.v., plasma, HGF measured in another experiment
# Experimental: Plasma was prepared by centrifuging EDTA blood for 5 minutes at 3000 g, and frozen at […] until analysis.
# peripheral blood cells [5] = assay: combination with G-CSF, hematological analysis; assay type: in vivo, mice; details: single administration, mice
# Experimental: G-CSF (NEUPOGEN®, Amgen, Holland) was supplied as sterile isotonic aqueous solution at 0.3 mg/mL and was diluted in normal saline to a concentration of 50 μg/mL. G-CSF was administered at a dose of 2.5 μg as a single subcutaneous injection, morning and evening Day -2 and Day -1. Dextran sulfate of different average molecular weights were used:
# Standard treatment of patients prior to apheresis is based on daily injections of G-CSF for up to one week. Clinically dextran sulfate could be used in combination with G-CSF. In a study in mice 2.5 μg/animal of G-CSF was administered twice daily (8 hrs apart) for 2 days (Broxmeyer 1999).
# lymphocytes = assay: cell (lymphocyte) mobilization in humans after 10 min i.v. infusion; assay type: in vivo
# Experimental: FIG. 13 illustrates mobilization of lymphocytes in peripheral blood in humans receiving a 10 min i.v. infusion of 15 mg/kg LMW-DS (top panel), 18 mg/kg LMW-DS (middle panel) or 24 mg/kg LMW-DS (lower panel) at time 0. The black line represents average lymphocyte levels and gray lines represent lymphocyte levels in individual humans.
# Thus, the peak in cell mobilization starts about 1 hour after dextran sulfate administration, which is shown in […] exemplified by mobilization of lymphocytes following administration of different doses of dextran sulfate to human subjects at time 0 hours. Thus, the peak effect in cell mobilization in humans typically occurs within the first three hours following dextran sulfate administration.
# [6] = tested on: hematopoietic colony-forming cells (CFC); assay: i.v. dose finding study, colony-forming cell assay; assay type: in vivo, mice
# Experimental: Blood (100-200 μL) was transferred to polypropylene tubes containing heparin (final concentration 17.5 IE/mL). Erythrocytes were depleted using ammonium chloride solution (StemCell Technologies, Vancouver, BC, Canada). Remaining cells were resuspended in Iscove's modified Dulbecco's Medium with 2% fetal bovine serum (StemCell Technologies) and mixed with 2 mL of methylcellulose media supplemented with a cocktail of recombinant cytokines (MethoCult 3434; StemCell Technologies) and penicillin-streptomycin according to manufacturer's instructions. Cultures of 1.1 mL containing HPCs were plated onto 35 mm dishes (Sarstedt, Landskrona, Sweden) and placed in a humidified chamber with 5% CO2 at 37° C. Total number of colonies was counted on day 12 of culture.
# peripheral blood cells [7] = assay: time-effect relationship, hematological analysis; details: 100 mg/kg i.v.; for Lymph / PLT / WBC: mean±SEM
# Experimental: as §1
# HGF [8] = assay: s.c. dose finding study, HGF-ELISA; details: 50, 150 and 500 mg/kg s.c.
substance,measurement,setting,value
dextran sulfate [LMW-DS],MCHC,peripheral blood cells [1],327.3 ± 2.5 g/L
same,MCV,peripheral blood cells [1],42.4 ± 0.3 fL
same,MPV,peripheral blood cells [1],7.9 ± 0.1
same,Monocytes,peripheral blood cells [1],0.5 ± 0.1*/† 10^9 cells/L
same,Neutrophils,peripheral blood cells [1],2.7 ± 0.3**/† 10^9 cells/L
same,Platelets,peripheral blood cells [1],893.5 ± 61.0†† 10^9 cells/L
same,Reticulocytes,peripheral blood cells [1],224.5 ± 35.2 10^9 cells/L
same,time of maximum levels of peripheral SDF-1,SDF-1,6 h
same,time of return of peripheral SDF-1 to baseline,SDF-1,24 h
same,time at which the number of CFCs peaks (peak starts),[2]; 100 mg/kg i.v.,7.5 min
same,time of BFU-E peak,[2]; 100 mg/kg i.v.,7.5 min
same,time of CFU-GM/CFU-GEMM peak,[2]; 100 mg/kg i.v.,15 to 30 min
same,persistence of the CFC peak,[2],at least 1 hour
same,time of peak in mobilized cells (CFCs) after dextran sulfate administration,[2],7.5 to 30 min
same,Lymphocytes,peripheral blood cells [3]; 100 mg/kg (Meito) i.v.,12.6 ± 1.7 *10^9/L
same,WBC,peripheral blood cells [3]; 100 mg/kg (Meito) i.v.,16.2 ± 1.8 *10^9/L
same,Lymphocytes,peripheral blood cells [3]; 100 mg/kg (Meito) s.c.,9.9 ± 1.2 *10^9/L
same,"circulating WBC, lymphocytes, CFC or CFC subtypes, i.v. versus s.c.",peripheral blood cells [3]; 100 mg/kg,no significant differences
same,HGF highest level,HGF [4]; listed as Dextran sulfate,16000 pg/mL
same,HGF highest level,HGF [4]; listed as dextran sulfate,15960 pg/mL and 16000 pg/mL
same,increase of HGF compared to baseline levels,HGF [4]; after 15 minutes,> 100 fold
same,HGF increase relative to plerixafor (AMD3100),HGF [4]; dextran sulfate 15 minutes versus AMD3100 after 1 hour,25 fold
same,HGF,HGF [4]; 15 min,"15,960 ± 1,450 pg/mL"
same,HGF,HGF [4]; 30 min,"13,800 ± 1,100 pg/mL"
same,HGF,HGF [4]; 1 hr,"7,740 ± 510 pg/mL"
same,HGF,HGF [4]; 3 hr,710 ± 230 pg/mL
same,release of lymphocytes in single therapy compared to single administration of G-CSF or plerixafor,peripheral blood cells [5],increased lymphocytes
same,release of lymphocytes in single therapy compared to single administration of G-CSF or plerixafor,peripheral blood cells [5]; listed as dextran sulfate,at least doubles
same,time of peak in mobilized cells after dextran sulfate administration,lymphocytes; humans,30 to 120 min
same,time at which cell mobilization is back to normal levels,lymphocytes; preliminary human data,about 24 hours
same,time at which cell mobilization starts to decline,lymphocytes; preliminary human data,about 6 hours
same,time of peak of cell mobilization after administration,"lymphocytes; preliminary human data, lymphocytes",about 1 hour
same,mobilization effect on CFC,"[6]; lowest dose given, 25 mg/kg i.v., p<0.001",significant evident already at the lowest dose given
same,increase of CFC over control,"[6]; single dose, AMD3100 s.c., dextran sulfate i.v.",6-12 times
same,BFU-E compared with AMD3100,[6]; single i.v. injection,seemed to increase BFU-E to a greater extent than AMD3100
same,number of platelets (PLT),peripheral blood cells [7],did not affect
same,Lymph,peripheral blood cells [7]; 7.5 min,4.6 ± 0.5*** *10^9/L
same,PLT,peripheral blood cells [7]; 7.5 min,"1,034 ± 31 *10^9/L"
same,WBC,peripheral blood cells [7]; 7.5 min,5.6 ± 0.5* *10^9/L
same,Lymph,peripheral blood cells [7]; 15 min,8.9 ± 0.7*** *10^9/L
same,PLT,peripheral blood cells [7]; 15 min,"1,122 ± 58 *10^9/L"
same,WBC,peripheral blood cells [7]; 15 min,10.2 ± 0.7*** *10^9/L
same,Lymph,peripheral blood cells [7]; 30 min,12.3 ± 1.1*** *10^9/L
same,PLT,peripheral blood cells [7]; 30 min,978 ± 64 *10^9/L
same,WBC,peripheral blood cells [7]; 30 min,14.6 ± 1.3*** *10^9/L
same,Lymph,peripheral blood cells [7]; 1 hr,8.8 ± 0.5*** *10^9/L
same,PLT,peripheral blood cells [7]; 1 hr,965 ± 23 *10^9/L
same,WBC,peripheral blood cells [7]; 1 hr,11.2 ± 0.6*** *10^9/L
same,Lymph,peripheral blood cells [7]; 3 hr,5.2 ± 0.8** *10^9/L
same,PLT,peripheral blood cells [7]; 3 hr,936 ± 26 *10^9/L
same,WBC,peripheral blood cells [7]; 3 hr,6.8 ± 1.0* *10^9/L
same,time of highest numbers of WBC and lymphocytes,peripheral blood cells [7]; mice,around 30 minutes
same,levels of circulating HGF,HGF [8],significantly (p<0.001) increased levels
